The record followed here is patent US9232799B2, “N-[(het)arylethyl)] pyrazole(thio)carboxamides and their heterosubstituted analogues” (BAYER INTELLECTUAL PROPERTY GMBH, priority 2010, dated 2016).

One data set has as its system Alternaria solani. The experiment in a line: In vivo preventive test on Alternaria solani (tomato). The following applies: 500 ppm of active ingredient, evaluated 7 days after inoculation. The text has this:
One day after this treatment, the plants are inoculated with an aqueous spore suspension of Alternaria solani.

A further data set has as its system aflatoxines production. The experiment in a line: microbe, parasite or virus in culture. The class given is cell-based, Aspergillus parasiticus.
For a further data set, the system named is Puccinia triticina. The experiment in a line: In vivo preventive test on Puccinia triticina (wheat). To be noted: evaluated 8 days after inoculation; for Efficacy: dose 500 ppm of active ingredient.
Data set [1] can be described thus: logP by HPLC on reversed-phase column (C 18), EEC Directive 79/831 Annex V.A8. It counts as physicochemical. The method, then: In table 1, the logP values were determined in accordance with EEC Directive 79/831 Annex V.A8 by HPLC (High Performance Liquid Chromatography) on a reversed-phase column (C 18), using the method described below: Temperature: 40° C.; […]

Another data set has as its system Sphaerotheca fuliginea. The experiment in a line: In vivo preventive test on Sphaerotheca fuliginea (cucumber). To be noted: 500 ppm of active ingredient, evaluated 7 days after inoculation. The text has this: One day after this treatment, the plants are inoculated with an aqueous spore suspension of Sphaerotheca fuliginea.
Data set [2] has as its system Fusarium nivale (var. majus). Description: In vivo curative test on Fusarium nivale (wheat). To be noted: 500 ppm of active ingredient, evaluated 5 days after inoculation.
The next data set relates to Septoria tritici. The experiment in a line: In vivo preventive test on Septoria tritici (wheat). The following applies: 500 ppm of active ingredient, evaluated 21 days after inoculation. The text has this: (§1) To test for preventive activity, young plants are sprayed with the preparation of active compound or active compound combination at the stated rate of application.

Another data set relates to Fusarium graminearum. The experiment in a line: microbe, parasite or virus in culture. The class given is cell-based.
The next data set relates to Pyrenophora teres. Description: In vivo preventive test on Pyrenophora teres (barley). The following applies: 500 ppm of active ingredient, evaluated 7-9 days after inoculation. The text has this:
One day after this treatment, the plants are inoculated with an aqueous spore suspension of Pyrenophora teres.

The subject of a further data set is Leptosphaeria nodorum. Description: In vivo preventive test on Leptosphaeria nodorum (wheat). To be noted: 500 ppm of active ingredient, evaluated 7-9 days after inoculation. The text has this: One day after this treatment, the plants are inoculated with an aqueous spore suspension of Leptosphaeria nodorum.
Data set [3] has as its system Blumeria graminis f.sp. hordei. The experiment in a line: In vivo preventive test on Blumeria graminis (barley). To be noted: 500 ppm of active ingredient, evaluated 7 days after inoculation.
From the text: as §1

The subject of a further data set is Botrytis cinerea. Description: In vivo preventive test on Botrytis cinerea (beans). The following applies: preventive, beans, lesion size 2 days after inoculation. The text has this:
To test for preventive activity, young plants are sprayed with the preparation of active compound. After the spray coating has dried on, 2 small pieces of agar covered with growth of Botrytis cinerea are placed on each leaf.

The test system of the next data set is Venturia inaequalis. The experiment in a line: In vivo preventive test on Venturia inaequalis (apple scab). The following applies: 100 ppm of active ingredient, evaluated 10 days after inoculation.
In the next data set the test system is Uromyces appendiculatus. Description: In vivo preventive test on Uromyces appendiculatus (beans). To be noted: 100 ppm of active ingredient, evaluated 10 days after inoculation.
The test system of data set [4] is Fusarium nivale (var. majus). The experiment in a line: In vivo preventive test on Fusarium nivale (wheat). To be noted: 500 ppm of active ingredient, evaluated 5 days after inoculation.
From the text: as §1

A further data set relates to Cochliobolus miyabeanus. Description: In vivo protective test on Cochliobolus miyabeanus (rice). The following applies: dose 250 ppm of active ingredient, evaluated 4 days after inoculation.

Molecules are shown by their SMILES. Some results are limits rather than exact numbers.

As a reminder, the logP is a log measure of how a compound divides between an organic and an aqueous phase. A higher logP goes with higher lipophilicity. As to `CC(Cc1c(F)cccc1F)N(C(=O)c1c(C(F)F)nn(C)c1F)C1CC1` (stereo not shown) [Example 26], the Efficacy in the data set with Alternaria solani was determined as 100%; with Puccinia triticina, 90%; with Sphaerotheca fuliginea it was 86%; in [2] it was 100%; in the data set on Septoria tritici, 100%; in the data set with Pyrenophora teres, 100%. In addition, the Efficacy with Leptosphaeria nodorum was 95%; in data set [3], 100%. Also, the “% Inhibition of Aflatoxin at 50 μM” value in the data set with aflatoxines production worked out at 100%. The same molecule yielded a logP in [1] of 3.42. Moreover, the “% Inhibition of fungal growth at 50 μM” value with Fusarium graminearum is on record as 99%.
Take `CCOC(c1ccc(Cl)cc1Cl)C(C)NC(=O)c1c(C(F)F)nn(C)c1Cl` (mixture of isomers) [Example 82]: the Efficacy was 95% in the data set on Alternaria solani; 98% in the data set on Botrytis cinerea (100 ppm of active ingredient); 95% in the data set with Sphaerotheca fuliginea; 100% in data set [2]; 100% with Septoria tritici; 100% in the data set with Pyrenophora teres. In the data set with Venturia inaequalis, the Efficacy is 100%. In the data set with aflatoxines production, the “% Inhibition of Aflatoxin at 50 μM” value amounted to 100%. Also, the “% Inhibition of fungal growth at 50 μM” value with Fusarium graminearum stood at 100%.
As for `COC(c1cc(Cl)cc(Cl)c1)C(C)NC(=O)c1c(C(F)F)nn(C)c1F` (mixture of isomers) [Example 109], the Efficacy in the data set with Alternaria solani is on record as 95%; in the data set on Sphaerotheca fuliginea, 85%; in [2] it was 100%; in the data set with Septoria tritici it was 100%; in the data set with Pyrenophora teres, 100%; with Venturia inaequalis, 99%. The Efficacy in [3] was 100%. Moreover, the “% Inhibition of Aflatoxin at 50 μM” value with aflatoxines production is recorded as 100%. In the data set with Fusarium graminearum, the “% Inhibition of fungal growth at 50 μM” value amounted to 100%.
As to `Cn1nc(C(F)F)c(C(=O)N(CCc2ccccc2)C2CC2)c1F` [Example 11], the Efficacy with Alternaria solani turned out to be 95%; in the data set on Sphaerotheca fuliginea, 83%; in [2], 100%; in the data set with Septoria tritici, 100%; in the data set on Pyrenophora teres, 100%; in the data set with Leptosphaeria nodorum, 95%. The Efficacy in [3] was 100%. The “% Inhibition of Aflatoxin at 50 μM” value with aflatoxines production worked out at 100%. Besides, the logP in [1] was 2.88. In addition, the “% Inhibition of fungal growth at 50 μM” value in the data set with Fusarium graminearum is 100%.
For orientation: inhibition means the relative decrease from the control value, in per cent. The chromatographic logP is a lipophilicity value derived from retention on a column. Low values mean a more hydrophilic compound, high ones a more lipophilic compound. Consider `CC(Cc1ncc(C(F)(F)F)cc1Cl)N(C(=O)c1c(C(F)F)nn(C)c1F)C1CC1` (stereo not shown) [Example 188, N-{1-[3-chloro-5-(trifluoromethyl)pyridin-2-yl]propan-2-yl}-N-cyclopropyl-3-(difluoromethyl)-5-fluoro-1-methyl-1H-pyrazole-4-carboxamide], for which the Efficacy was 100% in the data set on Alternaria solani; 98% with Uromyces appendiculatus; 90% in the data set on Puccinia triticina; 100% in the data set with Sphaerotheca fuliginea; 100% in data set [4]; 100% with Septoria tritici. The Efficacy in the data set on Cochliobolus miyabeanus is reported as 80%; in the data set on Pyrenophora teres, 100%; in the data set on Venturia inaequalis, 100%; in the data set with Leptosphaeria nodorum, 100%; in data set [3], 100%. Further, the inhibition at 50 µM was 100% with aflatoxines production (Aspergillus parasiticus, 168 h, read-out: % Inhibition of Aflatoxin at 50 μM) and 100% in the data set on Fusarium graminearum (Fusarium graminearum, 168 h, read-out: % Inhibition of fungal growth at 50 μM). Also, the pest or weed control at 100 ppm in the data set with Botrytis cinerea (Botrytis cinerea, 48 h, 100 ppm of active ingredient, read-out: Efficacy) was determined as 98%. Also, the pest or weed control at 500 ppm in the data set with Botrytis cinerea (Botrytis cinerea, 48 h, 500 ppm of active ingredient, read-out: Efficacy) is above 95%. Also, the “Efficacy (protection)” value in the data set with Puccinia triticina (preventive, 500 ppm of active ingredient) was “greater than 90%”. In data set [1] (logP), this molecule showed a chromatographic logP of 3.8.
As for `COC(CNC(=O)c1c(C(F)F)nn(C)c1Cl)c1ccc(Cl)cc1Cl` (stereo not shown) [Example 74], the “% Inhibition of Aflatoxin at 50 μM” value in the data set on aflatoxines production turned out to be 100%. The Efficacy is recorded as 93% in the data set on Botrytis cinerea (100 ppm of active ingredient); 75% with Sphaerotheca fuliginea; 100% in data set [2]; 100% in the data set on Septoria tritici; 95% with Pyrenophora teres; 100% in the data set with Venturia inaequalis. For the same molecule, in data set [3], the Efficacy came out at 100%. The logP in [1] is given as 3.48. Besides, the “% Inhibition of fungal growth at 50 μM” value with Fusarium graminearum is given as 100%.
Take `CCC(NC(=O)c1c(C(F)F)nn(C)c1F)C(OC)c1ccc(Cl)cc1Cl` (stereo not shown) [Example 77]: the Efficacy is given as 100% in the data set with Alternaria solani; 97% in the data set with Botrytis cinerea (100 ppm of active ingredient); 95% with Sphaerotheca fuliginea; 100% in [2]; 100% in the data set on Septoria tritici; 80% in the data set on Pyrenophora teres. For the same molecule, the values for the Efficacy (in the data set with Venturia inaequalis; in the data set with Leptosphaeria nodorum; in data set [3]) were 100%, 95% and 100%, respectively. Besides, the “% Inhibition of Aflatoxin at 50 μM” value with aflatoxines production was found to be 100%. Also, in [1], the lipophilicity (logP) worked out at 3.94. In the data set on Fusarium graminearum, the “% Inhibition of fungal growth at 50 μM” value is 100%.
`COC(CNC(=O)c1c(C(F)F)nn(C)c1F)c1ccc(Cl)cc1Cl` (stereo not shown) [Example 75]: the “% Inhibition of Aflatoxin at 50 μM” value in the data set with aflatoxines production is reported as 100%. For the same molecule, the Efficacy in the data set on Botrytis cinerea (100 ppm of active ingredient) was found to be 95%; in the data set on Sphaerotheca fuliginea it was 80%; in [2], 86%; in the data set with Septoria tritici, 100%; in the data set with Pyrenophora teres it was 100%; in the data set on Venturia inaequalis, 95%. In addition, the Efficacy in data set [3] was 100%. The molecule also yielded a logP in [1] of 3.25. For the same molecule, in the data set on Fusarium graminearum, the “% Inhibition of fungal growth at 50 μM” value turned out to be 100%.
With `CC(CN(C(=O)c1c(C(F)F)nn(C)c1F)C1CC1)c1ccccc1` (stereo not shown) [Example 13], the Efficacy in the data set on Alternaria solani was found to be 95%; in data set [2], 93%; with Septoria tritici it was 93%; in the data set on Pyrenophora teres, 100%; with Leptosphaeria nodorum, 100%; in [3] it was 100%. For the same molecule, the “% Inhibition of Aflatoxin at 50 μM” value in the data set with aflatoxines production was 100%. The molecule also gave a logP in data set [1] of 3.17. Moreover, in the data set on Fusarium graminearum, the “% Inhibition of fungal growth at 50 μM” value came to 100%.
For the molecule `CCOC(c1ccc(Cl)cc1Cl)C(C)NC(=O)c1c(C(F)F)nn(C)c1F` (mixture of isomers) [Example 83], the Efficacy was determined as 100% with Alternaria solani; 98% in the data set on Botrytis cinerea (100 ppm of active ingredient); 100% with Sphaerotheca fuliginea; 100% in data set [2]; 100% with Septoria tritici; 100% with Pyrenophora teres. Also, the Efficacy in the data set with Venturia inaequalis is on record as 100%; in the data set on Leptosphaeria nodorum, 90%; in data set [3], 100%. Moreover, the “% Inhibition of Aflatoxin at 50 μM” value in the data set on aflatoxines production came out at 100%. Also, the “% Inhibition of fungal growth at 50 μM” value with Fusarium graminearum was found to be 100%.
Consider `CCC(NC(=O)c1c(C(F)F)nn(C)c1Cl)C(OC)c1ccc(Cl)cc1Cl` (mixture of isomers) [Example 76], for which the Efficacy with Alternaria solani is 95%; with Botrytis cinerea (100 ppm of active ingredient) it was 72%; in the data set with Sphaerotheca fuliginea, 93%; in [2], 86%; in the data set on Septoria tritici, 100%; in the data set with Pyrenophora teres, 100%. The Efficacy (in the data set on Venturia inaequalis; in data set [3]) was 100% in each case. Moreover, in the data set with aflatoxines production, the “% Inhibition of Aflatoxin at 50 μM” value is given as 100%. Besides, the “% Inhibition of fungal growth at 50 μM” value in the data set on Fusarium graminearum worked out at 100%.
As for `COC(CNC(=O)c1c(C(F)F)nn(C)c1Cl)c1cc(Cl)cc(Cl)c1` (stereo not shown) [Example 106], in the data set on aflatoxines production, the “% Inhibition of Aflatoxin at 50 μM” value is given as 89%. Also, in data set [1], the logP turned out to be 3.55. Also, the Efficacy in data set [2] was determined as 93%; in the data set on Septoria tritici, 71%; in the data set on Pyrenophora teres it was 90%. Moreover, in the data set with Fusarium graminearum, the “% Inhibition of fungal growth at 50 μM” value is reported as 69%.
